Reference: article PMC2843614, “Protein engineering of conger eel galectins by tracing of molecular evolution using probable ancestral mutants” (BMC Evolutionary Biology, 2010)
Like-named read-outs stand apart in the source and are kept apart here.

Legend:
Assay in all cases: frontal affinity chromatography (FAC)
[1] = molecular target: T1, Con-anc (probable ancestral form of congerins); assay type: binding, synthetic construct; details: labelled compound (pyridylaminated sugar)
T1 construct: recombinant from plasmid pTV-Con-anc in Escherichia coli JM109; differs from ConI at 31 residues; purified by HCl-treated Sepharose 4B and HiTrap Q
Text: frontal affinity chromatography (FAC) on Con-anc (probable ancestral form of congerins)

congerin II (ConII) = molecular target: T2, congerin II (ConII) (Conger myriaster, UniProt Q9YIC2); assay type: binding
T2 construct: full length, 135 residues (natural form N-acetylated); proto-type galectin, dimer
Text: frontal affinity chromatography (FAC) on congerin II (ConII)

congerin I (ConI) = molecular target: T3, congerin I (ConI) (Conger myriaster, UniProt P26788); assay type: binding
T3 construct: full length, 136 residues (natural form N-acetylated); proto-type galectin, dimer
Text: frontal affinity chromatography (FAC) on congerin I (ConI)

[2] = labelled compound (pyridylaminated sugar)

T3 sequence (P26788 whole entry): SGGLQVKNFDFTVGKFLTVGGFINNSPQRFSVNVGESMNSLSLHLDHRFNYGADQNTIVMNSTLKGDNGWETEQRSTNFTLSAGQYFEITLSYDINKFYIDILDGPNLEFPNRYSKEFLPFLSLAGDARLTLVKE
T2 sequence (Q9YIC2 2-136): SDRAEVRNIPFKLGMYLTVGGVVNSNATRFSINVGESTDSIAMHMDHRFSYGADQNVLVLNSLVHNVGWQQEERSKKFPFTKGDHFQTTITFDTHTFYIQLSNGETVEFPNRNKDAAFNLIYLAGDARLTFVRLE

Molecule | Kd [1] [µM] | Kd (congerin II (ConII); [2]) [µM] | Kd (congerin I (ConI)) [µM] | Kd (congerin II (ConII)) [µM] | Kd ([1]; read-out: Con-anc-L5 / Kd) [µM] | Kd ([1]; read-out: Con-anc-N/C/L5 / Kd) [µM] | Kd (congerin I (ConI); [2]) [µM]
CC(=O)N[C@H]1[C@H]([C@H](O)[C@H](O)CO)OC(O[C@H]2[C@@H](O)[C@@H](CO)O[C@@H](O[C@@H]([C@H](O)[C@@H](O)CNc3ccccn3)[C@H](O)CO)[C@@H]2O)(C(=O)O)C[C@@H]1O (stereo partly drawn) [compound 29] | 242 | 51 |  |  |  |  | 
CC(=O)N[C@H]1[C@H](O[C@H]2[C@@H](O)[C@@H](CO)O[C@@H](O[C@@H]([C@H](O)[C@@H](O)CNc3ccccn3)[C@H](O)CO)[C@@H]2O)O[C@H](CO)[C@@H](O[C@@H]2O[C@H](CO)[C@H](O)[C@H](O)[C@H]2O)[C@@H]1O[C@@H]1O[C@@H](C)[C@@H](O)[C@@H](O)[C@@H]1O [compound 45, LNFP-III] | 171 |  | 13 | 122 |  |  | 
GM3 (NeuGc) [compound 30] | 196 | 66 |  |  |  |  | 
A-heptasaccharide [compound 48] | 56 | 42 |  |  |  | 2.5 | 17

Second part, the molecule after the results:

Kd [1] [µM] | Kd (congerin II (ConII); [2]) [µM] | Kd (congerin I (ConI)) [µM] | Kd (congerin II (ConII)) [µM] | Kd ([1]; read-out: Con-anc-L5 / Kd) [µM] | Kd ([1]; read-out: Con-anc-N/C/L5 / Kd) [µM] | Kd (congerin I (ConI); [2]) [µM] | Molecule
44 |  | 9.4 | 37 |  |  |  | CC(=O)N[C@H]1[C@H](O[C@H]2[C@@H](O)[C@@H](CO)O[C@@H](O[C@@H]([C@H](O)[C@@H](O)CNc3ccccn3)[C@H](O)CO)[C@@H]2O)O[C@H](CO)[C@@H](O[C@@H]2O[C@@H](C)[C@@H](O)[C@@H](O)[C@@H]2O)[C@@H]1O[C@@H]1O[C@H](CO)[C@H](O)[C@H](O)[C@H]1O[C@@H]1O[C@@H](C)[C@@H](O)[C@@H](O)[C@@H]1O [compound 46]
55 |  | 4.4 | 24 | 3.9 |  |  | CC(=O)N[C@H]1[C@H](O[C@H]2[C@@H](O)[C@@H](CO)O[C@@H](O[C@@H]([C@H](O)[C@@H](O)CNc3ccccn3)[C@H](O)CO)[C@@H]2O)O[C@H](CO)[C@@H](O[C@@H]2O[C@@H](C)[C@@H](O)[C@@H](O)[C@@H]2O)[C@@H]1O[C@@H]1O[C@H](CO)[C@H](O)[C@H](O)[C@H]1O [compound 44]
